# Test results: US6384085B1, “Material separated from Ecklonia cava, method for extracting and purifying the same, and use thereof as antioxidants” (Ventree Co., Ltd., priority 2000, dated 2002)
# Columns and labels:
# [1] = Antioxidative activity: DPPH radical scavenging activity according to the Blois method; assay type: biochemical; conditions: 10 min reaction, absorbance at 517 nm
# Procedure: (§1) The antioxidative activity of the novel compound obtained through the extraction and purification process is evaluated by measuring its radical scavenging activity against 1,1-diphenyl-2-picrylhydrazyl (DPPH), which has free radicals attached thereto, according to the Blois method. A thermal stability of the compound of interest can be evaluated by measuring its antioxidative activity at plural temperature points.
# (§2) Dicaval C obtained in Example 3 was measured for antioxidative activity according to the Blois method. For this, an examination was made of the radical scavenging activity of the compound against 1,1-diphenyl-2-picrylhydrazyl (DPPH) to which free radicals were attached. First, 20 mg of DPPH was dissolved in 150 ml of ethanol to prepare a DPPH solution. To 600 μl of the DPPH solution was added 250 μl of dimethylsulfoxide (DMSO), diluted with an appropriate amount of ethanol and shaken for 10 seconds, after which this control was adjusted, in absorbance at 517 nm, from 0.94 to 0.97. To 1 ml of the DPPH solution which was adjusted from 0.94 to 0.97 likewise, each of the samples (μg to mg) was added and then, reacted for 10 min, followed by measuring the absorbance of the solution. The antioxidative activity of each of the samples was determined by the DPPH radical scavenging activity which was represented by a reduced absorbance compared with that of the control.
# [2] = Thermal stability: antioxidative activity (DPPH) after heating for 1 hour; assay type: physicochemical
# Procedure: as §1, §2
# 50 μg of Dicaval C obtained in Example 3 was heated at 40° C., 60° C., 80° C., and 100° C. for 1 hour to measure antioxidative activity.
# [3] = 50 μg heated at 40 °C for 1 hour
# [4] = 50 μg heated at 60 °C for 1 hour
# [5] = 50 μg heated at 80 °C for 1 hour
# [6] = 50 μg heated at 190 °C [sic] for 1 hour
Compound,DPPH radical scavenging activity (antioxidative activity) ([1]; sample amount 10 μg),DPPH radical scavenging activity (antioxidative activity) ([1]; sample amount 20 μg),DPPH radical scavenging activity (antioxidative activity) ([1]; sample amount 100 μg),"Antioxidativity (Absorb. change) [2, 3]","Notes (thermal stability) [2, 3]","Antioxidativity (Absorb. change) [2, 4]","Notes (thermal stability) [2, 4]","Antioxidativity (Absorb. change) [2, 5]","Notes (thermal stability) [2, 5]","Antioxidativity (Absorb. change) [2, 6]","Notes (thermal stability) [2, 6]"
"O=C1O[C@H]([C@@H](O)CO)C(O)=C1O [Ascorbic acid, reference compound]",100%,100%,100%,,,,,,,,
Oc1cc(O)cc(Oc2cc(O)c(O)c3c2Oc2c(O)cc(O)cc2O3)c1 [Dicaval C],82%,100%,100%,0.87,Stable,0.86,Stable,0.89,Stable,0.88,Stable
